# Earlier results as cited in patent US7897615B2 (Chugai Sciyaku Kabushiki Kaisha, priority 2003, dated 2011).
# pIC50: −log10 of the molar value.
# Legend:
# CPT-I muscle (M) isoform = details: muscle isoform of CPT-I
# [1] = tested on: human breast cancer cells
pIC50 (CPT-I muscle (M) isoform),SMILES,antitumor activity [1],malonyl-CoA level ([1]; breast carcinoma cells)
7.52,CC(C)(COP(=O)(O)OP(=O)(O)OC[C@H]1O[C@@H](n2cnc3c(N)ncnc32)[C@H](O)[C@@H]1OP(=O)(O)O)[C@@H](O)C(=O)NCCC(=O)NCCSC(=O)CC(=O)O [Malonyl-CoA],–,–
–,"CCCCCCCCCCCCCCOc1ccc(C(=O)O)o1 [TOFA, 5-(tetradecyloxy)-2-furoic acid]",does not show any antitumor activity,60 % of the control
